Data from ChEMBL document CHEMBL1156251, “Structure--activity relationships of polymyxin antibiotics” (J Med Chem, 2010).
Converted amounts (≈) assume the structure as drawn. “And” between values parts separate entries of the source, which are not always exact repeats. Equal entries are not always repeated. Where a SMILES comes first, the peptide text is derived from it. Bridges are numbered along the chain shown (N, C = ends). [ ]: non-standard residue; d: D form. The star is where a group is joined. Nonanoyl = CCCCCCCCC(=O)*; Dab = NCC[C@H](N)C(=O)O

Experiments:
Klebsiella pneumoniae = test: Antimicrobial activity against Klebsiella pneumoniae; format: functional
Escherichia coli = test: Antimicrobial activity against Escherichia coli; format: functional
Lipopolysaccharide (LPS) = test: Displacement of dansyl-PMB from LPS by isothermal titration calorimetry
Salmonella enterica = test: Antimicrobial activity against Salmonella enterica; format: functional
Pseudomonas aeruginosa = test: Antimicrobial activity against Pseudomonas aeruginosa; format: functional, organism-based

Structure (SMILES)	MIC (Klebsiella pneumoniae) [µg/mL]	MIC (Escherichia coli)	IC50 (Lipopolysaccharide (LPS))	MIC (Salmonella enterica) [µM]	MIC (Pseudomonas aeruginosa) [µM]
CCC(C)CCCCC(=O)N[C@@H](CC/N=C/c1ccc(N(C)C)cc1)C(=O)N[C@@H](C(=O)N[C@@H](CC/N=C/c1ccc(N(C)C)cc1)C(=O)N[C@H]1CCNC(=O)[C@@H]([C@@H](C)O)NC(=O)[C@H](CC/N=C/c2ccc(N(C)C)cc2)NC(=O)[C@H](CC/N=C/c2ccc(N(C)C)cc2)NC(=O)[C@H](CC(C)C)NC(=O)[C@@H](Cc2ccccc2)NC(=O)[C@H](CC/N=C\c2ccc(N(C)C)cc2)NC1=O)[C@@H](C)O (some centres not stated)	3.1 (≈ 1.67 µM)	12 µg/mL	–	–	–
CCC(C)CCCCC(=O)N[C@@H](CC/N=C/c1ccc(O)c(OC)c1)C(=O)N[C@@H](C(=O)N[C@@H](CCN)C(=O)N[C@H]1CCNC(=O)[C@@H]([C@@H](C)O)NC(=O)[C@H](CC/N=C/c2ccc(O)c(OC)c2)NC(=O)[C@H](CC/N=C/c2ccc(O)c(OC)c2)NC(=O)[C@H](CC(C)C)NC(=O)[C@@H](Cc2ccccc2)NC(=O)[C@H](CC/N=C/c2ccc(O)c(OC)c2)NC1=O)[C@@H](C)O (some centres not stated)	26 (≈ 14.9 µM)	–	–	–	–
CCC(C)CCCCC(=O)N[C@@H](CCNCc1ccc(C(C)C)cc1)C(=O)N[C@@H](C(=O)N[C@@H](CCN)C(=O)N[C@H]1CCNC(=O)[C@@H]([C@@H](C)O)NC(=O)[C@H](CCNCc2ccc(C(C)C)cc2)NC(=O)[C@H](CCNCc2ccc(C(C)C)cc2)NC(=O)[C@H](CC(C)C)NC(=O)[C@@H](Cc2ccccc2)NC(=O)[C@H](CCNCc2ccc(C(C)C)cc2)NC1=O)[C@@H](C)O (some centres not stated)	26 (≈ 15 µM)	12 µg/mL	–	–	–
CCC(C)CCCCC(=O)N[C@@H](CCNCc1ccc(O)c(OC)c1)C(=O)N[C@@H](C(=O)N[C@@H](CCN)C(=O)N[C@H]1CCNC(=O)[C@@H]([C@@H](C)O)NC(=O)[C@H](CCNCc2ccc(O)c(O)c2)NC(=O)[C@H](CCNCc2ccc(O)c(OC)c2)NC(=O)[C@H](CC(C)C)NC(=O)[C@@H](Cc2ccccc2)NC(=O)[C@H](CCNCc2ccc(O)c(OC)c2)NC1=O)[C@@H](C)O (some centres not stated)	12 (≈ 6.92 µM)	724 µg/mL	–	–	–
CCC(C)CCCCC(=O)N[C@@H](CC/N=C/c1ccc(O)c(OC)c1)C(=O)N[C@@H](C(=O)N[C@@H](CCN)C(=O)N[C@H]1CCNC(=O)[C@@H]([C@@H](C)O)NC(=O)[C@H](CC/N=C/c2ccc(O)c(OC)c2)NC(=O)[C@H](CC/N=C/c2ccc(O)c(OC)c2)NC(=O)[C@H](CC(C)C)NC(=O)[C@@H](CC(C)C)NC(=O)[C@H](CC/N=C/c2ccc(O)c(OC)c2)NC1=O)[C@@H](C)O (some centres not stated)	2.8 (≈ 1.64 µM)	5.5 µg/mL	–	–	–
CCC(C)CCCCC(=O)N[C@@H](CC/N=C/c1ccc(O)cc1)C(=O)N[C@H](C(=O)N[C@@H](CCN)C(=O)N[C@H]1CCNC(=O)[C@H]([C@@H](C)O)NC(=O)[C@H](CC/N=C/c2ccc(O)cc2)NC(=O)[C@H](CC/N=C/c2ccc(O)cc2)NC(=O)[C@H](CC(C)C)NC(=O)[C@@H](Cc2ccccc2)NC(=O)[C@H](CC/N=C/c2ccc(O)cc2)NC1=O)[C@@H](C)O (some centres not stated)	26 (≈ 16.1 µM)	–	–	–	–
CCC(C)CCCCC(=O)N[C@@H](CC/N=C/c1ccccc1)C(=O)N[C@H](C(=O)N[C@@H](CCN)C(=O)N[C@H]1CCNC(=O)[C@H]([C@@H](C)O)NC(=O)[C@H](CC/N=C/c2ccccc2)NC(=O)[C@H](CC/N=C/c2ccccc2)NC(=O)[C@H](CC(C)C)NC(=O)[C@@H](Cc2ccccc2)NC(=O)[C@H](CC/N=C/c2ccccc2)NC1=O)[C@@H](C)O (some centres not stated)	26 (≈ 16.7 µM)	–	–	–	–
CCC(C)CCCCC(=O)N[C@@H](CCNCc1ccc(O)cc1)C(=O)N[C@H](C(=O)N[C@@H](CCN)C(=O)N[C@H]1CCNC(=O)[C@H]([C@@H](C)O)NC(=O)[C@H](CCNCc2ccc(O)cc2)NC(=O)[C@H](CCNCc2ccc(O)cc2)NC(=O)[C@H](CC(C)C)NC(=O)[C@@H](Cc2ccccc2)NC(=O)[C@H](CCNCc2ccc(O)cc2)NC1=O)[C@@H](C)O (some centres not stated)	1.6 (≈ 0.983 µM)	6.2 µg/mL	–	–	–
CCC(C)CCCCC(=O)N[C@@H](CC/N=C/c1ccc(N(C)C)cc1)C(=O)N[C@H](C(=O)N[C@@H](CCN)C(=O)N[C@H]1CCNC(=O)[C@H]([C@@H](C)O)NC(=O)[C@H](CC/N=C/c2ccc(N(C)C)cc2)NC(=O)[C@H](CC/N=C/c2ccc(N(C)C)cc2)NC(=O)[C@H](CC(C)C)NC(=O)[C@@H](CC(C)C)NC(=O)[C@H](CC/N=C/c2ccc(N(C)C)cc2)NC1=O)[C@@H](C)O (some centres not stated)	3.1 (≈ 1.83 µM)	12 µg/mL	–	–	–
CCC(C)CCCCC(=O)N[C@@H](CCNCc1ccc(O)cc1)C(=O)N[C@H](C(=O)N[C@@H](CCN)C(=O)N[C@H]1CCNC(=O)[C@H]([C@@H](C)O)NC(=O)[C@H](CCNCc2ccc(O)cc2)NC(=O)[C@H](CCNCc2cccc(O)c2)NC(=O)[C@H](CC(C)C)NC(=O)[C@@H](CC(C)C)NC(=O)[C@H](CCNCc2ccc(O)cc2)NC1=O)[C@@H](C)O (some centres not stated)	1.4 (≈ 0.878 µM)	5.5 µg/mL	–	–	–
CCC(C)CCCCC(=O)N[C@@H](CCNCc1ccccc1)C(=O)N[C@H](C(=O)N[C@@H](CCN)C(=O)N[C@H]1CCNC(=O)[C@H]([C@@H](C)O)NC(=O)[C@H](CCNCc2ccccc2)NC(=O)[C@H](CCNCc2ccccc2)NC(=O)[C@H](CC(C)C)NC(=O)[C@@H](CC(C)C)NC(=O)[C@H](CCNCc2ccccc2)NC1=O)[C@@H](C)O (some centres not stated)	1.3 (≈ 0.85 µM)	5 µg/mL	–	–	–
CCC(C)CCCCC(=O)N[C@@H](CC/N=C/c1ccccc1)C(=O)N[C@H](C(=O)N[C@@H](CCN)C(=O)N[C@H]1CCNC(=O)[C@H]([C@@H](C)O)NC(=O)[C@H](CC/N=C/c2ccccc2)NC(=O)[C@H](CC/N=C/c2ccccc2)NC(=O)[C@H](CC(C)C)NC(=O)[C@@H](CC(C)C)NC(=O)[C@H](CC/N=C/c2ccccc2)NC1=O)[C@@H](C)O (some centres not stated)	26 (≈ 17.1 µM)	0.08 µg/mL	–	–	–
CCCCCCCCC(=O)N[C@@H](CCN)C(=O)N[C@H](C(=O)N[C@@H](CCN)C(=O)N[C@H]1CCNC(=O)[C@H]([C@@H](C)O)NC(=O)[C@H](CCN)NC(=O)[C@H](CCN)NC(=O)[C@H](CC(C)C)NC(=O)[C@@H](Cc2ccccc2)NC(=O)[C@H](CCN)NC1=O)[C@@H](C)O [POLYMYXIN B5] (Nonanoyl-[Dab]T[Dab][Dab][Dab][dF]L[Dab][Dab]T; lactam 4-C)	–	1 µM	6 µM	1 (≈ 1.2 µg/mL)	1 (≈ 1.2 µg/mL)
CCC(C)CCC(O)CC(=O)N[C@@H](CCN)C(=O)N[C@H](C(=O)N[C@@H](CCN)C(=O)N[C@H]1CCNC(=O)[C@H]([C@@H](C)O)NC(=O)[C@H](CCN)NC(=O)[C@H](CCN)NC(=O)[C@H](CC(C)C)NC(=O)[C@@H](Cc2ccccc2)NC(=O)[C@H](CCN)NC1=O)[C@@H](C)O (some centres not stated) [POLYMYXIN B6]	–	0.5 µM	7 µM	0.5 (≈ 0.61 µg/mL)	0.5 (≈ 0.61 µg/mL)
CC(C)C[C@@H]1NC(=O)[C@@H](Cc2ccccc2)NC(=O)[C@H](CCN)NC(=O)[C@@H](N)CCNC(=O)[C@H]([C@@H](C)O)NC(=O)[C@H](CCN)NC(=O)[C@H](CCN)NC1=O [POLYMYXIN B HEPTAPEPTIDE]	–	≥ 256 µM and ≥ 300 µg/mL	>= 32 nmol/ml	≥ 256	128 (≈ 97.5 µg/mL)
CC(C)C[C@@H]1NC(=O)[C@@H](Cc2ccccc2)NC(=O)[C@H](CCN)NC(=O)[C@@H](NC(=O)[C@@H](N)CCN)CCNC(=O)[C@H]([C@@H](C)O)NC(=O)[C@H](CCN)NC(=O)[C@H](CCN)NC1=O [POLYMYXIN B OCTAPEPTIDE] (H-[Dab][Dab][Dab][dF]L[Dab][Dab]T; lactam 2-C)	–	≥ 128 µM and ≥ 300 µg/mL	21 µM	256 (≈ 221 µg/mL)	64 (≈ 55.2 µg/mL)
